Target: T1, TrkA(h) (Homo sapiens, UniProt P04629)
T1 construct: purchased Millipore (KinaseProfiler service)
Test: KinaseProfiler (Millipore) radiometric kinase inhibition assay
Assay type: biochemical
Details: compound concentration 1 μM
Experimental: The KinaseProfiler™ Service Assay Protocols (Millipore) were used to test the kinase inhibiting activity of novel compounds from this invention. To do this, the buffer composition was as follows: 20 mM MOPS, 1 mM EDTA, 0.01% Brij-35, 5% Glycerol, 0.1% β-mercaptoethanol, 1 mg/mL BSA. Test compounds were initially dissolved in DMSO at the desired concentration, then serially diluted into the kinase assay buffer. In a final reaction volume of 25 μL, TrkA(h) (5-10 mU) is incubated with 8 mM MOPS pH 7.0, 0.2 mM EDTA, 200 μM LRRASLG (Kemptide), 10 mM MgAcetate and [γ^33P-ATP]. The reaction was initiated by the addition of the MgATP mix. After incubation for 40 minute at room temperature, the reaction was stopped by addition of 5 μL of a 3% phosphoric acid solution. 10 μL of the reaction was then spotted onto a P30 filtermat and washed three times for 5 minutes in 50 mM phosphoric acid and once in methanol prior to drying and scintillation counting. Wells containing substrate but no kinase and wells containing a phosphopeptide control were used to set 0% and 100% phosphorylation value, respectively.

T1 sequence (P04629 33-796): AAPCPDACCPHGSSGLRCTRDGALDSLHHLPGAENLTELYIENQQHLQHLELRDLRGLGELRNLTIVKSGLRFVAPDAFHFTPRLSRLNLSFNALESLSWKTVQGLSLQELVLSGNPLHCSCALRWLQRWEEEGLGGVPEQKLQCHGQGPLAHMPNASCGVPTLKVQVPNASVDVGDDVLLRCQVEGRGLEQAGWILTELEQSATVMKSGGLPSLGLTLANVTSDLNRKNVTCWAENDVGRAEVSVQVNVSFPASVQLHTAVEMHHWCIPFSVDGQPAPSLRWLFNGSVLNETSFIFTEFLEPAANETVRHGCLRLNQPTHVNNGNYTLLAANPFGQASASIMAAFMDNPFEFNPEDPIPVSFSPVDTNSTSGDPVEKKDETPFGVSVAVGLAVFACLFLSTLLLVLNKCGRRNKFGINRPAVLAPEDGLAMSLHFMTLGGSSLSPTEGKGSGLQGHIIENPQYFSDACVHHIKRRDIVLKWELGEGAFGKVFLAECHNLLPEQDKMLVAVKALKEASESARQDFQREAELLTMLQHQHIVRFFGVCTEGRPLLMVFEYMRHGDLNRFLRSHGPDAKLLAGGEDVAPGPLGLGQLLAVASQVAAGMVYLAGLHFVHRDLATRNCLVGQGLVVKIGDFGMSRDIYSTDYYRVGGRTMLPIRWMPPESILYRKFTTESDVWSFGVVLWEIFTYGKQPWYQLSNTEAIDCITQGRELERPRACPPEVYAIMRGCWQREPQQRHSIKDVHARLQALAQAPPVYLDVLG

Row | Structure (SMILES) | inhibition at 1 µM [%]
1 | Fc1ccc(C2CCCN2c2cc(Nc3cc(C4CC4)[nH]n3)ncn2)cc1 (stereo not drawn) [Example 28] | 103
2 | Fc1ccc(C2CCCN2c2ncnc(Nc3cc(C4CC4)[nH]n3)c2F)cc1 (stereo not drawn) [Example 48] | 51
3 | Cc1cccc(C2CCCN2c2cc(Nc3cc(C4CC4)[nH]n3)ncn2)c1 (stereo not drawn) [Example 30] | 97
4 | C/C=C/c1cc(Nc2cc(N3CCCC3c3ccc(F)cc3)ncn2)n[nH]1 (stereo not drawn) [Example 50] | 99
5 | COc1ccccc1C1CCCN1c1cc(Nc2cc(C3CC3)[nH]n2)ncn1 (stereo not drawn) [Example 37] | 101
6 | Clc1cccc(C2CCCN2c2cc(Nc3cc(C4CC4)[nH]n3)ncn2)c1 (stereo not drawn) [Example 34] | 101
7 | Fc1ccc(C2CCCN2c2cc(Nc3cc(C4CC4)[nH]n3)ncn2)c(F)c1 (stereo not drawn) [Example 43] | 105
8 | COc1cccc(C2CCCN2c2cc(Nc3cc(C4CC4)[nH]n3)ncn2)c1 (stereo not drawn) [Example 32] | 91
9 | CN(C)c1cccc(C2CCCN2c2cc(Nc3cc(C4CC4)[nH]n3)ncn2)c1 (stereo not drawn) [Example 41] | 101
10 | CC(C)n1cc(Nc2cc(N3CCCC3c3ccc(F)cc3)ncn2)cn1 (stereo not drawn) [Example 59] | 0
11 | Fc1ccccc1C1CCCN1c1cc(Nc2cc(C3CC3)[nH]n2)ncn1 (stereo not drawn) [Example 38] | 95
12 | Clc1ccccc1C1CCCN1c1cc(Nc2cc(C3CCCO3)[nH]n2)ncn1 (stereo not drawn) [Example 54] | 70
13 | Fc1ccc(F)c(C2CCCN2c2cc(Nc3cc(C4CC4)[nH]n3)ncn2)c1 (stereo not drawn) [Example 44] | 103
14 | c1ccc(C2COCCN2c2cc(Nc3cc(C4CC4)[nH]n3)ncn2)cc1 (stereo not drawn) [Example 64] | 85
15 | Clc1ccc(C2CCCN2c2cc(Nc3cc(C4CC4)[nH]n3)ncn2)cc1Cl (stereo not drawn) [Example 46] | 100
16 | Cc1ccc(C2CCCN2c2ncnc(Nc3cc(C4CC4)[nH]n3)c2C#N)cc1 (stereo not drawn) [Example 47] | -6
17 | CN1CCN(c2cc(Nc3cc(C4CC4)[nH]n3)ncn2)C(c2ccccc2)C1 (stereo not drawn) [Example 65] | 79
18 | Cc1cc(Nc2cc(N3CCCC3c3ccc(Cl)cc3)ncn2)n[nH]1 (stereo not drawn) [Example 66] | 95
19 | Fc1ccc(C2CCCN2c2ncnc(Nc3cc(C4CC4)[nH]n3)n2)c(F)c1 (stereo not drawn) [Example 74] | 100
20 | c1ccc(C2CCCN2c2cc(Nc3cc(C4CC4)[nH]n3)ncn2)cc1 (stereo not drawn) [Example 24] | 101
21 | Fc1ccc(C2CCCN2c2cc(Nc3cc(C4CCC4)[nH]n3)ncn2)cc1 (stereo not drawn) [Example 49] | 101
22 | FC(F)(F)c1ccc(C2CCCN2c2cc(Nc3cc(C4CC4)[nH]n3)ncn2)cc1 (stereo not drawn) [Example 26] | 98
23 | FC(F)(F)c1cccc(C2CCCN2c2cc(Nc3cc(C4CC4)[nH]n3)ncn2)c1 (stereo not drawn) [Example 31] | 61
24 | Fc1ccc(C2CCCN2c2ncnc(Nc3cc(C4CC4)[nH]n3)n2)cc1 (stereo not drawn) [Example 73] | 100

Row | Structure (SMILES) | inhibition at 1 µM [%]
25 | CC(C)Oc1cc(Nc2cc(N3CCCC3c3ccccc3Cl)ncn2)n[nH]1 (stereo not drawn) [Example 53] | 96
26 | Fc1ccc(Nc2cc(N3CCCC3c3ccc(F)cc3)ncn2)cc1 (stereo not drawn) [Example 57] | 44
27 | CCCc1cc(Nc2cc(N3CCCC3c3ccc(Cl)cc3)ncn2)n[nH]1 (stereo not drawn) [Example 67] | 99
28 | Cc1ccc(C2CCCN2c2cc(Nc3cc(C4CC4)[nH]n3)ncn2)cc1 (stereo not drawn) [Example 25] | 100
29 | Fc1ccc(C2CCN2c2cc(Nc3cc(C4CC4)[nH]n3)ncn2)cc1 (stereo not drawn) [Example 62] | 105
30 | N#Cc1cnc(Nc2cc(N3CCCC3c3ccc(F)cc3)ncn2)s1 (stereo not drawn) [Example 58] | 7
31 | OC1CC(c2cc(F)ccc2F)N(c2cc(Nc3cc(C4CC4)[nH]n3)ncn2)C1 (stereo not drawn) [Example 45] | 96
32 | CC(C)(C)OC(=O)N1CCC(c2cc(Nc3cc(N4CCCC4c4ccccc4Cl)ncn3)n[nH]2)CC1 (stereo not drawn) [Example 55] | 6
33 | FC(F)(F)c1ccccc1C1CCCN1c1cc(Nc2cc(C3CC3)[nH]n2)ncn1 (stereo not drawn) [Example 36] | 93
34 | Clc1ccc(C2CCCN2c2cc(Nc3cc(C4CC4)[nH]n3)ncn2)cc1 (stereo not drawn) [Example 29] | 105
35 | Cc1ccccc1C1CCCN1c1cc(Nc2cc(C3CC3)[nH]n2)ncn1 (stereo not drawn) [Example 35] | 92
36 | Clc1ccc(C2CCCN2c2ncnc(Nc3cc(C4CC4)[nH]n3)n2)cc1 (stereo not drawn) [Example 75] | 100
37 | Fc1ccc(C2CCCN2c2cc(Nc3cc(-c4ccccn4)[nH]n3)ncn2)cc1 (stereo not drawn) [Example 52] | 30
38 | Fc1ccc(C2CCCN2c2cc(Nc3cc(-c4ccco4)[nH]n3)ncn2)cc1 (stereo not drawn) [Example 51] | 79
39 | c1ccc(C2CCCCN2c2cc(Nc3cc(C4CC4)[nH]n3)ncn2)cc1 (stereo not drawn) [Example 63] | 99
40 | Fc1cccc(C2CCCN2c2cc(Nc3cc(C4CC4)[nH]n3)ncn2)c1 (stereo not drawn) [Example 33] | 103
41 | Fc1cccc(F)c1C1CCCN1c1cc(Nc2cc(C3CC3)[nH]n2)ncn1 (stereo not drawn) [Example 42] | 101
42 | Clc1ccccc1C1CCCN1c1cc(Nc2cc(-c3ccco3)[nH]n2)ncn1 (stereo not drawn) [Example 56] | 47
43 | Fc1ccc(C2CCCN2c2cc(Nc3n[nH]c4ccccc34)ncn2)cc1 (stereo not drawn) [Example 60] | 79
44 | COc1ccc(C2CCCN2c2cc(Nc3cc(C4CC4)[nH]n3)ncn2)cc1 (stereo not drawn) [Example 27] | 101
45 | CN1CCN(c2ccc(Nc3cc(N4CCCC4c4ccc(F)cc4)ncn3)nc2)CC1 (stereo not drawn) [Example 61] | -12
46 | Clc1ccccc1C1CCCN1c1cc(Nc2cc(C3CC3)[nH]n2)ncn1 (stereo not drawn) [Example 39] | 97
47 | Nc1nc(Nc2cc(C3CC3)[nH]n2)cc(N2CCCC2c2ccc(F)cc2)n1 (stereo not drawn) [Example 71] | 100
48 | CN(C)c1ccc(C2CCCN2c2cc(Nc3cc(C4CC4)[nH]n3)ncn2)cc1 (stereo not drawn) [Example 40] | 102

From patent US10738033B2, “Trk inhibition” (NantBio, Inc., priority 2017, dated 2020)
